Data reported in article PMC11416286 (Heliyon, 2024).

Molecular target: Aβ (1-42) (Homo sapiens, UniProt P05067)
Experiment: Thioflavin T fluorescence anti-aggregation assay with […] Aβ
Type: biochemical

Sequence of Aβ (1-42) (P05067 672-713): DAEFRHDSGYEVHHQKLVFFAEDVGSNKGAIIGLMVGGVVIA

O=c1oc2c(O)c(O)cc3c(=O)oc4c(O)c(O)cc1c4c23 [EA, Ellagic acid]
IC50: 8.01 ± 0.5 µM
